Numbers after ± are expanded uncertainties.
Details: Liquid

Row | SMILES | vapor or sublimation pressure (273.15 K) [kPa] | vapor or sublimation pressure (283.15 K) [kPa] | vapor or sublimation pressure (293.15 K) [kPa] | vapor or sublimation pressure (303.15 K) [kPa]
1 | CC(C)C [2-methylpropane] | 157.2 ± 1.6 | 221.8 ± 1.8 | 303.4 ± 2.1 | 405.2 ± 2.6
2 | CCC [propane] | 475 ± 1.8 | 637.8 ± 2.2 | 836 ± 2.6 | 1078.4 ± 3.2

Reference: the NIST ThermoML archive (doi:10.1021/je030106k)
